Measurements from PubChem BioAssay AID1996.
Values after ≈ are worked out from the molar mass of the structure shown.

Settings: buffer; pH 7.4; 200.0 µM

| Structure (SMILES) | solubility kinetic [mg/mL] |
| --- | --- |
| O=C(CN1C(=O)NC2(CCCC2)C1=O)NCc1cccc(Cl)c1 | 0.0424 (≈ 126 µM) |
| CC(=O)N1CCN(CC(c2ccccc2)c2ccccc2)CC1 | 0.0387 (≈ 125 µM) |
| CCCCSCCCNC(=O)Nc1ccc(C)c(C)c1 | 0.0011 (≈ 3.74 µM) |
| CCOC(=O)c1csc(NC(=O)c2cc3ccccc3o2)n1 | 0.0008 (≈ 2.53 µM) |
| CCCc1ccc(C(=O)/C=C/N(C)C)cc1 | 0.0269 (≈ 124 µM) |
| Nc1c([N+](=O)[O-])cc(-c2cnc[nH]2)cc1[N+](=O)[O-] | < 0.0001 |
| CSc1ccccc1NC(=O)Cc1ccccc1 | > 0.0386 |
| CCN(C(=O)CSc1nccc(=O)[nH]1)c1cccc2ccccc12 | > 0.0509 |
| O=C(O)/C(=N/NC(=O)c1ccc(Cl)cc1)c1ccccc1 | > 0.0454 |
| CCOC(=O)c1[nH]c2cc3c(cc2c1NC(=O)CN1CCCC1)OCO3 | 0.018 (≈ 50.1 µM) |
| Cc1cccc(C)c1NC(=O)COC(=O)c1cccnc1 | > 0.0426 |
| ONC(=Nc1cccc(C(F)(F)F)c1)c1cccnc1 | > 0.0422 |
| Cc1ccc(C)c(N2CCN(CCCc3ccccc3)CC2)c1 | 0.0046 (≈ 14.9 µM) |
| COc1cc(SC)ccc1C(=O)N(Cc1ccccc1)c1ccccn1 | > 0.0547 |
| CC(=O)O.NCC(c1ccco1)c1c[nH]c2ccccc12 (stereo unspecified) | 0.0215 |
| Cc1ccc(C(=O)NC2=NCCS2)cc1 | 0.0329 (≈ 149 µM) |
| CCCCNC(=O)C1CC(=O)N(CCc2ccc(C)cc2)C1 (stereo unspecified) | > 0.0454 |
| O=c1cc(C(F)(F)F)[nH]c2ccc(OC(F)(F)F)cc12 | > 0.0446 |
| CCN(CC)/C(=N\S(=O)(=O)c1ccc(F)cc1)c1ccccc1 | > 0.0502 |
| Cc1cc(NC(=O)CN2CCN(c3cccc(Cl)c3)CC2)no1 | 0.0455 (≈ 136 µM) |
| COCc1cc(C)nc2oc(C(=O)c3ccccc3)c(N)c12 | 0.0084 (≈ 28.3 µM) |

| Structure (SMILES) | solubility kinetic [mg/mL] |
| --- | --- |
| CC(C)(C)N(Cc1ccccc1)C(=O)COC(=O)c1ccc2ccccc2n1 | 0.003 (≈ 7.97 µM) |
| Nc1ccc(C(=O)Nc2ccccc2N)cc1 | > 0.0341 |
| CCc1ccc(NC2=CC(=O)CC(C)(C)C2)cc1 | 0.0161 (≈ 66.2 µM) |
| Cc1cccc(NC(=O)NCc2cccnc2)c1C | 0.0356 (≈ 139 µM) |
| O=S1(=O)CCN(C(CCO)c2cccc(C(F)(F)F)c2)CC1 (stereo unspecified) | > 0.0506 |
| Cc1ccc(S(=O)(=O)NCc2ccccc2)s1 | > 0.0401 |
| Cc1ccsc1C(=O)C1CCCN(Cc2cnc(N)nc2)C1 (stereo unspecified) | 0.0378 (≈ 119 µM) |
| CC(C)(C)NC(=O)/C(=C/c1cccnc1)NC(=O)c1ccco1 | > 0.047 |
| CC(C)(C)c1ccc(/C=C/C(=O)NCCCn2ccnc2)cc1 | 0.0461 (≈ 148 µM) |
| CCC(=O)N1CCCC(C(=O)c2ccc(-c3ccccc3)cc2)C1 (stereo unspecified) | 0.0299 (≈ 93 µM) |
| COCCNC(=O)Cn1cc(C(=O)c2ccccc2F)c2ccccc21 | 0.0179 (≈ 50.5 µM) |
| Cc1c(C(=O)O)nn(-c2cccc(C(F)(F)F)c2)c(=O)c1C#N | > 0.0485 |
| CC(CN1CCCC1)OC(=O)Cc1ccc(Cl)cc1.Cl (stereo unspecified) | > 0.0477 |
| O=C1Nc2ccccc2Sc2ccccc21 | 0.0012 (≈ 5.28 µM) |
| C[N+](C)(C)CCOC(=O)CBr.[Br-] | > 0.0458 |
| O=C(NCCNC(=O)c1cccc(O)c1)c1cccc(O)c1 | > 0.045 |
| CC(=O)/C(C#N)=C1\NC(=O)C(Cc2ccc(C)c(Cl)c2)S1 (stereo unspecified) | > 0.0481 |
| O=C(O)C1CC(c2ccccc2)=Nc2ccccc2S1 (stereo unspecified) | 0.0098 (≈ 34.6 µM) |
| O=C(Cc1ccccc1)Nc1ccc2c(c1)OC1(CCCC1)O2 | 0.0164 (≈ 53 µM) |
| O=C(NCC1CCCO1)C1CC(=O)N(c2ccccc2)C1 (stereo unspecified) | > 0.0433 |
| COc1ccc(NC(=O)COC(=O)CNC(=O)C2CCCCC2)cc1OC | > 0.0568 |

| Structure (SMILES) | solubility kinetic [mg/mL] |
| --- | --- |
| CC1(C)Cc2nc3oc4c(SCC(N)=O)ncnc4c3cc2CO1 | 0.0178 (≈ 51.7 µM) |
| O=C1NC(C(=O)O)=CC(c2ccc([N+](=O)[O-])cc2)N1 (stereo unspecified) | > 0.0395 |
| Cc1cccc(-c2noc(C(C)NC(=O)c3ccco3)n2)c1 (stereo unspecified) | 0.0329 (≈ 111 µM) |
| CCc1ccc(NC(=S)Nc2cccc3cnccc23)cc1 | 0.0116 (≈ 37.7 µM) |
| O=C(Nc1ccccc1)C(=O)c1c[nH]c2ccccc12 | 0.0008 (≈ 3.03 µM) |
| Cc1ccc(-c2nc3ncccc3o2)cc1NC(=O)c1ccccc1 | 0.0003 (≈ 0.911 µM) |
| CCCCOc1ccc(N=Cc2ccc[nH]2)cc1 | 0.0349 (≈ 144 µM) |
| CCCCC(=O)Nc1ccccc1CC | > 0.0308 |
| O=[N+]([O-])c1ccc(C(=S)N2CCCC2)cc1 | > 0.0354 |
| COc1cccc2[nH]c(C(=O)NC(C)c3ccccc3)cc12 (stereo unspecified) | > 0.0442 |
| O=S(=O)(Nc1ccon1)c1ccc(Br)s1 | 0.0313 (≈ 101 µM) |
| Cc1ccc(OCCNC(=O)CNC(=O)c2ccccc2Cl)cc1 | > 0.052 |
| CCC(C)NC(=O)CSc1ccc(S(=O)(=O)N(C)C2CCCCC2)cn1 (stereo unspecified) | 0.0594 (≈ 149 µM) |
| CCOc1ccc(C(=O)NCC(=O)NCCOc2ccc(C)cc2)cc1 | 0.0104 (≈ 29.2 µM) |
| Cc1ccc(C(=O)O/N=C(\N)Cc2ccc([N+](=O)[O-])cc2)c(Cl)c1 | 0.0039 (≈ 11.2 µM) |
| O=C(CC1NCCNC1=O)Nc1ccccc1 (stereo unspecified) | > 0.035 |
| Cc1cc(C)nc(SCC(=O)c2ccc(F)c(C)c2)n1 | 0.0147 (≈ 50.6 µM) |
| CCC(C)c1ccccc1NC(=O)CN(CC)CC(=O)Nc1ccc2c(c1)OCCO2 (stereo unspecified) | 0.0383 (≈ 90 µM) |
| CCS(=O)CC(=O)Nc1c(-c2ccccc2)oc2ccccc2c1=O (stereo unspecified) | 0.0448 (≈ 126 µM) |
